For assay [1], the target named is T1, human recombinant KDM1A (LSD1)/CoRest (Homo sapiens, UniProt O60341).
T1 construct: made in house; host or cells: E. coli
Briefly: Assay of enzyme inhibition of KDM1A (LSD1), Amplex UltraRed/peroxidase coupled. In kind it is biochemical. The note with it: 15 min preincubation, 4.5 μM mono-methylated H3-K4 peptide, range classes, read-out: IC50 [μM], KDM1A inhibition assay. The procedure, abridged: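 KDM1A/CoRest complex with inhibitor (e.g. 0–100 μM) and Amplex UltraRed/peroxidase preincubated 15 min at RT. Substrate: mono-methylated H3K4 21-mer peptide in 50 mM Tris pH 8, 0.05 mg/ml BSA, aerobic. IC50 from duplicates run twice, background-corrected.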

Assay [2] relates to Acute promyelocytic leukemia NB4 cells. Nature of the assay: Cell growth (CellTiter-Fluor cell viability assay). In kind it is cell-based. The following applies: Homo sapiens, NB-4, 48 h, range classes, read-out: IC50 [μM], cell growth inhibitory assay. The procedure, abridged:
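Exponentially growing NB4 cells exposed to a range of inhibitor concentrations for 48 h. Viability then read as live-cell protease fluorescence (ex 360/em 535 nm) after ≥90 min reagent incubation at 37 °C; IC50 calculated from the data.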

For assay [3], the target named is T2, Human recombinant MAO B (Homo sapiens, UniProt P27338).
T2 sequence (P27338 1-520): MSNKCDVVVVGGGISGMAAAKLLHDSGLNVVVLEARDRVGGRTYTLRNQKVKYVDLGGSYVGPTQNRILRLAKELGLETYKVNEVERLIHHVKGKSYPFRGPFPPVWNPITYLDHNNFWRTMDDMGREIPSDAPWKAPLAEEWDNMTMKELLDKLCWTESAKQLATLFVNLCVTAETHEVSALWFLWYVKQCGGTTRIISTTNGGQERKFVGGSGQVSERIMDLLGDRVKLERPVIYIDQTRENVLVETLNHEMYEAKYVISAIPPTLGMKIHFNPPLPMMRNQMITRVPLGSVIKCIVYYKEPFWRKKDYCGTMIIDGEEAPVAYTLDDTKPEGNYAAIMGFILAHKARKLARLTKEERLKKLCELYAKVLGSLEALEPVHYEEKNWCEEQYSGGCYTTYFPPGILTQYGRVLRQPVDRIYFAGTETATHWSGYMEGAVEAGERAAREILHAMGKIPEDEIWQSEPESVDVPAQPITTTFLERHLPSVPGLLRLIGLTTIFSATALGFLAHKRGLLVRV
The note with it: ratio of IC50 against MAO-B over IC50 for LSD1.
Experimental: The MAO-Glo Assay from Promega (cat. V1402, Promega, Madison, Wis.) was used to measure the effect of inhibitors on MAO-A and MAO-B activity.
After 30 minutes of incubation the reaction was stopped with the Promega detection reagent. The experiments were carried out in duplicate. IC50 was calculated using GraphPad Prism version 4.0 (GraphPad Software, San Diego, Calif.).

Structures can show the parent of a compound that is named as a salt.

What is called IC50 is the concentration that inhibits the measured activity by half. For the molecule `CC[C@@]1(N)C[C@H]1c1ccc(NC(=O)c2cccc(N3CCOC3=O)c2)cc1` (relative stereo) [Example A-98, N-[4-[trans-2-amino-2-ethyl-cyclopropyl]phenyl]-3-(2-oxooazolidin-3-yl)benzamide 2,2,2-trifluoroacetic acid], the IC50 in assay [1] was < 0.1 µM; in assay [2], ≤ 10 µM. The “IC50 (MAO-B)/IC50 (LSD1)” value in assay [3] is >100.

In the case of `CC[C@]1(N)C[C@@H]1c1ccc(NC(=O)c2ccccc2)cc1.Cl` (relative stereo) [Example A-47, N-[4-[trans-2-amino-2-ethyl-cyclopropyl]phenyl]benzamide hydrochloride], the IC50 in assay [1] is < 0.1 µM. Besides, the “IC50 (MAO-B)/IC50 (LSD1)” value in assay [3] was >100.

With `CC[C@@]1(N)C[C@H]1c1ccc(NC(=O)c2ccc(-c3ccoc3)cc2)cc1` (relative stereo) [Example A-78, N-[4-[trans-2-amino-2-ethyl-cyclopropyl]phenyl]-4-(3-furyl) benzamide hydrochloride], the IC50 in assay [1] is < 0.1 µM; in assay [2] it was ≤ 10 µM. Also, in assay [3], the “IC50 (MAO-B)/IC50 (LSD1)” value was determined as 60.

`CC[C@@]1(N)C[C@H]1c1ccc(NC(=O)c2ccc(-c3ccccc3)cc2)c(F)c1` (relative stereo) [Example A-87, N-[4-[trans-2-amino-2-ethyl-cyclopropyl]-2-fluoro-phenyl]-4-phenyl-benzamide hydrochloride]: the IC50 in assay [1] was < 0.1 µM; in assay [2] it was 10 to 50 µM.

Turning to `CC[C@@]1(N)C[C@H]1c1ccc(NC(=O)c2ccc(N3CCOC3=O)cc2)cc1` (relative stereo) [Example A-83, N-[4-[trans-2-amino-2-ethyl-cyclopropyl]phenyl]-4-(2-oxooxazolidin-3-yl)benzamide hydrochloride], the IC50 is < 0.1 µM in assay [1] and ≤ 10 µM in assay [2].

With `N[C@]1(Cc2ccc3ccccc3c2)C[C@H]1c1ccc(NC(=O)c2ccccc2)cc1` [Example A-44, N-[4-[tyrans-2-amino-2-(2-naphthylmethyl)cyclopropyl]phenyl] benzamide hydrochloride], the IC50 in assay [1] is < 0.1 µM; in assay [2], ≤ 10 µM.

Take `N[C@]1(Cc2ccc3ccccc3c2)C[C@H]1c1ccc(NC(=O)c2ccc(-c3ccccc3)cc2)cc1` (relative stereo) [Example A-73, N-[4-[trans-2-amino-2-(2-naphthylmethyl)cyclopropyl]phenyl]-4-phenyl-benzamide hydrochloride]: the values for the IC50 in assay [1] and in assay [2] were 0.1 to 1 µM and 10 to 50 µM, respectively.

For `N[C@]1(CCc2ccccc2)C[C@H]1c1ccc(NC(=O)c2cccc(N3CCOC3=O)c2)cc1` (relative stereo) [Example A-118, N-[4-(trans-2-amino-2-phenethyl-cyclopropyl)phenyl]-3-(2-oxooxazolidin-3-yl)benzamide 2,2,2-trifluoroacetic acid], the results for the IC50 in assay [1] and in assay [2] were < 0.1 µM and ≤ 10 µM, respectively.

Take `N[C@]1(c2ccccc2)C[C@H]1c1ccc(NC(=O)c2ccc3ccccc3c2)cc1` (relative stereo) [Example A-85, N-[4-[trans-2-amino-2-phenyl-cyclopropyl]phenyl] naphthalene-2-carboxamide hydrochloride]: the IC50 in assay [1] was < 0.1 µM; in assay [2], ≤ 10 µM.

As to `N[C@]1(c2ccccc2)C[C@H]1c1ccc(NC(=O)c2ccc(-c3ccccc3)cc2)cc1` (relative stereo) [Example A-89, N-[4-[trans-2-amino-2-phenyl-cyclopropyl]phenyl]-4-phenyl-benzamide 2,2,2-trifluoroacetic acid], the IC50 in assay [1] is < 0.1 µM; in assay [2], ≤ 10 µM.

With `N[C@]1(CCc2ccccc2)C[C@H]1c1ccc(NC(=O)c2ccccc2)cc1` (relative stereo) [Example A-114, N-[4-trans-2-amino-2-phenethyl-cyclopropyl)phenyl] benzamide hydrochloride], the IC50 in assay [1] is < 0.1 µM; in assay [2] it was ≤ 10 µM. In addition, in assay [3], the “IC50 (MAO-B)/IC50 (LSD1)” value was >100.

On to `CC[C@@]1(N)C[C@H]1c1ccc(NC(=O)c2cccc(Cl)c2)cc1` (relative stereo) [Example A-34, N-[4-[(trans-2-amino-2-ethyl-cyclopropyl]phenyl]-3-chloro-benzamide hydrochloride], for which the IC50 in assay [1] was < 0.1 µM; in assay [2], 10 to 50 µM.

Consider `N[C@]1(CNCc2ccccc2)C[C@H]1c1ccccc1` (relative stereo) [Example B-3, trans-1-(benzylamino)methyl-2-phenyl-cyclopropanamine dihydrochloride], for which the figures for the IC50 in assay [1] and in assay [2] were 1 to 5 µM and 50 to 100 µM, respectively.

On to `N[C@]1(Cc2ccc3ccccc3c2)C[C@H]1c1ccc(NC(=O)c2ccc3ccccc3c2)cc1` (relative stereo) [Example A-72, N-[4-[trans-2-amino-2-(2-naphthylmethyl)cyclopropyl]phenyl] naphthalene-2-carboxamide hydrochloride], for which the IC50 in assay [1] is 0.1 to 1 µM; in assay [2], ≤ 10 µM.

As for `N[C@]1(c2ccccc2)C[C@H]1c1ccc(NC(=O)c2ccccc2)cc1` (relative stereo) [Example A-75, N-[4-[trans-2-amino-2-phenyl-cyclopropyl]phenyl] benzamide hydrochloride], the IC50 in assay [1] is < 0.1 µM; in assay [2], 10 to 50 µM.

`CN1CCN(c2ccc(C(=O)Nc3ccc([C@@H]4C[C@]4(N)CCc4ccccc4)cc3)cc2)CC1` (relative stereo) [Example A-116, N-[4-(trans-2-amino-2-phenethyl-cyclopropyl)phenyl]-4-(4-methylpiperazin-1-yl)benzamide dihydrochloride]: the IC50 in assay [1] is < 0.1 µM; in assay [2] it was ≤ 10 µM. In assay [3], the “IC50 (MAO-B)/IC50 (LSD1)” value is >100.

As for `N[C@]1(Cc2ccc3ccccc3c2)C[C@H]1c1ccc(NC(=O)Cc2ccccc2)cc1` (relative stereo) [Example A-46, N-[4-[(trans-2-amino-2-(2-naphthylmethyl)cyclopropyl]phenyl]-2-phenyl-acetamide hydrochloride], the IC50 in assay [1] is < 0.1 µM; in assay [2] it was ≤ 10 µM.

Regarding `CC[C@@]1(N)C[C@H]1c1cccc(NC(=O)c2ccc3ccccc3c2)c1` (relative stereo) [Example A-92, N-[3-[trans-2-amino-2-ethyl-cyclopropyl]phenyl] naphthalene-2-carboxamide hydrochloride], the IC50 in assay [1] is 0.1 to 1 µM; in assay [2], 10 to 50 µM.

As to `N[C@]1(c2ccccc2)C[C@H]1c1ccc(NC(=O)c2cccc(NC(=O)OCc3ccccc3)c2)cc1` (relative stereo) [Example A-84, benzyl N-[3-[(4-[trans-2-amino-2-phenyl-cyclopropyl]phenyl)carbamoyl]phenyl]carbamate 2,2,2-trifluoroacetic acid], the figures for the IC50 in assay [1] and in assay [2] were < 0.1 µM and 10 to 50 µM, respectively.

`CC[C@@]1(N)C[C@H]1c1ccc(OCc2ccccc2)cc1` (relative stereo) [Example A-41, 2-(4-benzyloxyphenyl)- trans-1-ethyl-cyclopropanamine hydrochloride]: the IC50 in assay [1] fell in the range of 0.1 to 1 µM; in assay [2] it was 10 to 50 µM.

On to `CC[C@@]1(N)C[C@H]1c1ccc(NC(=O)c2ccccc2)c(F)c1` (relative stereo) [Example A-86, N-[4-[trans-2-amino-2-ethyl-cyclopropyl]-2-fluoro-phenyl]benzamide hydrochloride], for which the IC50 in assay [1] is < 0.1 µM; in assay [2] it was 50 to 100 µM.
